Measurements as given in ChEMBL document CHEMBL1201862, “PubChem BioAssay data set” (2004).
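48-hour exposure; five concentrations; linearly interpolated endpoints. GI50 = concentration required for 50% inhibition of growth.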 The source made the active and inactive calls. Rule as the data show it: active = GI50 up to about 1.1 µM and inactive = higher.

What was measured:
Assay in all cases: NCI-60 cell line screen, 48 h
UACC-62 = test system: UACC-62
EKVX = test system: EKVX
786-0 = test system: 786-0
OVCAR-4 = test system: OVCAR-4
SK-MEL-28 = test system: SK-MEL-28
OVCAR-5 = test system: OVCAR-5
A549 = test system: A549
MDA-N = test system: MDA-N
UACC-257 = test system: UACC-257
COLO 205 = test system: COLO 205
HOP-92 = test system: HOP-92
CCRF-CEM = test system: CCRF-CEM
SF-268 = test system: SF-268
KM12 = test system: KM12
HCC 2998 = test system: HCC 2998
SF-295 = test system: SF-295
SK-OV-3 = test system: SK-OV-3
MOLT-4 = test system: MOLT-4
CAKI-1 = test system: CAKI-1
A498 = test system: A498

Compound | GI50 (UACC-62) | GI50 (EKVX) | GI50 (786-0) | GI50 (OVCAR-4) | GI50 (SK-MEL-28) | GI50 (OVCAR-5) | GI50 (A549) | GI50 (MDA-N) | GI50 (UACC-257) | GI50 (COLO 205) | GI50 (HOP-92) | GI50 (CCRF-CEM) | GI50 (SF-268) | GI50 (KM12) | GI50 (HCC 2998) | GI50 (SF-295) | GI50 (SK-OV-3) | GI50 (MOLT-4) | GI50 (CAKI-1) | GI50 (A498)
Cc1cc2c(c(C(=O)NCCC(=O)O)c1)Oc1c(cc(C)cc1C(=O)NCCC(=O)O)S2 | > 100 µM (inactive) | > 100 µM (inactive) | > 100 µM (inactive) | > 100 µM (inactive) | > 100 µM (inactive) | > 100 µM (inactive) | > 100 µM (inactive) | > 100 µM (inactive) | > 100 µM (inactive) | > 100 µM (inactive) | > 100 µM (inactive) | > 100 µM (inactive) | > 100 µM (inactive) | > 100 µM (inactive) | > 100 µM (inactive) | > 100 µM (inactive) | > 100 µM (inactive) | > 100 µM (inactive) | > 100 µM (inactive) | –
CCOC(=O)C1(Cc2ccc3c(c2)CCC3)Cc2cc3c(cc2C1)CCC3 | 30.6 µM (inactive) | 47.6 µM (inactive) | 29.6 µM (inactive) | 28 µM (inactive) | 39.4 µM (inactive) | 45.6 µM (inactive) | 35.9 µM (inactive) | 37 µM (inactive) | 23.7 µM (inactive) | 33.9 µM (inactive) | – | 13.9 µM (inactive) | 53.2 µM (inactive) | 40.7 µM (inactive) | 22.6 µM (inactive) | 25.1 µM (inactive) | 24.7 µM (inactive) | 11.5 µM (inactive) | 45.7 µM (inactive) | 37.5 µM (inactive)
Cc1ccc(S(=O)(=O)N(CCNC(=O)c2cccc(O)c2O)c2cc3c4c(c2)Oc2cccc5c2C4(C)c2c(cccc2O3)O5)cc1 | 20.8 µM (inactive) | 37.4 µM (inactive) | > 100 µM (inactive) | > 100 µM (inactive) | 53.6 µM (inactive) | 64.7 µM (inactive) | 20.9 µM (inactive) | 6.93 µM (inactive) | > 100 µM (inactive) | – | – | – | 15.1 µM (inactive) | > 100 µM (inactive) | > 100 µM (inactive) | > 100 µM (inactive) | 57.1 µM (inactive) | > 100 µM (inactive) | > 100 µM (inactive) | 58.6 µM (inactive)
CC(=O)N1C(=O)c2cc3ccccc3cc21 | > 100 µM (inactive) | > 100 µM (inactive) | > 100 µM (inactive) | – | > 100 µM (inactive) | > 100 µM (inactive) | > 100 µM (inactive) | > 100 µM (inactive) | – | > 100 µM (inactive) | 62.7 µM (inactive) | 78.2 µM (inactive) | > 100 µM (inactive) | – | > 100 µM (inactive) | – | > 100 µM (inactive) | – | – | 24.7 µM (inactive)
COc1c(C2(c3ccc(F)cc3)SCCCS2)c(=O)c1=O | > 100 µM (inactive) | > 100 µM (inactive) | > 100 µM (inactive) | > 100 µM (inactive) | > 100 µM (inactive) | > 100 µM (inactive) | > 100 µM (inactive) | > 100 µM (inactive) | > 100 µM (inactive) | > 100 µM (inactive) | > 100 µM (inactive) | > 100 µM (inactive) | > 100 µM (inactive) | > 100 µM (inactive) | > 100 µM (inactive) | > 100 µM (inactive) | > 100 µM (inactive) | > 100 µM (inactive) | > 100 µM (inactive) | –
CCOC(=O)[C@@H]1ON2O[C@@H](OC3CCCCC3c3ccccc3)C[C@H]3OC(=O)[C@@H]1C32 (some centres not stated) | > 100 µM (inactive) | > 100 µM (inactive) | > 100 µM (inactive) | – | – | > 100 µM (inactive) | 80.7 µM (inactive) | > 100 µM (inactive) | > 100 µM (inactive) | > 100 µM (inactive) | > 100 µM (inactive) | 0.792 µM (active) | > 100 µM (inactive) | > 100 µM (inactive) | 66.7 µM (inactive) | > 100 µM (inactive) | > 100 µM (inactive) | > 100 µM (inactive) | 51.9 µM (inactive) | > 100 µM (inactive)
CCOC(=O)Oc1ccc2c(c1)c(=O)c1c(NCCN(CC)CC)ccc3nnn2c31 | 11.5 µM (inactive) | 6.41 µM (inactive) | 0.488 µM (active) | 2.55 µM (inactive) | 11.7 µM (inactive) | 10.6 µM (inactive) | 0.2 µM (active) | 2.94 µM (inactive) | 7.35 µM (inactive) | 1.01 µM (active) | 4.22 µM (inactive) | 0.172 µM (active) | 1.43 µM (inactive) | 2.32 µM (inactive) | 2.94 µM (inactive) | 3.78 µM (inactive) | 8 µM (inactive) | < 0.0166 µM (active) | – | 6.52 µM (inactive)
O=C1OC[C@H]2[C@@H]1[C@H]1O[C@@H]2C2=C(CCC2)C1=O | > 100 µM (inactive) | > 100 µM (inactive) | > 100 µM (inactive) | > 100 µM (inactive) | > 100 µM (inactive) | > 100 µM (inactive) | > 100 µM (inactive) | > 100 µM (inactive) | > 100 µM (inactive) | > 100 µM (inactive) | > 100 µM (inactive) | > 100 µM (inactive) | > 100 µM (inactive) | > 100 µM (inactive) | > 100 µM (inactive) | > 100 µM (inactive) | > 100 µM (inactive) | 1.11 µM (active) | – | > 100 µM (inactive)
COc1ccc(-c2c3c(n(C4OC(CO)C(O)C(O)C4O)c(=S)c2C#N)CCCC3)cc1 (configuration not stated) | > 100 µM (inactive) | > 100 µM (inactive) | > 100 µM (inactive) | > 100 µM (inactive) | – | > 100 µM (inactive) | > 100 µM (inactive) | > 100 µM (inactive) | > 100 µM (inactive) | > 100 µM (inactive) | – | 52 µM (inactive) | – | > 100 µM (inactive) | > 100 µM (inactive) | > 100 µM (inactive) | > 100 µM (inactive) | 73.1 µM (inactive) | > 100 µM (inactive) | > 100 µM (inactive)
CC1OC(OC2C(O[C@H]3CC[C@@]4(C)C(=CC[C@H]5[C@@H]6C[C@@H]7O[C@]8(CC[C@@H](CO)CO8)[C@@H](C)[C@@H]7[C@@]6(C)CC[C@@H]54)C3)OC(CO)C(O)C2OC2OC(CO)C(O)C(O)C2O)C(O)C(O)C1O (some centres not stated) | 1.83 µM (inactive) | 2.07 µM (inactive) | 1.9 µM (inactive) | 1.91 µM (inactive) | 1.95 µM (inactive) | 2.22 µM (inactive) | 2.07 µM (inactive) | 1.68 µM (inactive) | 1.77 µM (inactive) | 1.88 µM (inactive) | 1.76 µM (inactive) | – | 1.85 µM (inactive) | 1.91 µM (inactive) | 1.62 µM (inactive) | – | 2.62 µM (inactive) | – | 1.95 µM (inactive) | 2.01 µM (inactive)
COc1ccc(Nc2nc3ccc(C(F)(F)F)cc3nc2C(=O)O)cc1OC | 21.7 µM (inactive) | 36.2 µM (inactive) | 35 µM (inactive) | 40.6 µM (inactive) | 41.6 µM (inactive) | 47 µM (inactive) | – | 34.7 µM (inactive) | 30.6 µM (inactive) | 43 µM (inactive) | – | – | 34.1 µM (inactive) | 16.9 µM (inactive) | 18.7 µM (inactive) | 24 µM (inactive) | – | 16.1 µM (inactive) | 39.5 µM (inactive) | 27.9 µM (inactive)
Cc1c2cnccc2c(C)c2c1c1ccccc1n2CCCN | 0.693 µM (active) | 0.525 µM (active) | 0.0667 µM (active) | 0.14 µM (active) | 0.857 µM (active) | 0.667 µM (active) | 0.408 µM (active) | 0.226 µM (active) | 1.09 µM (active) | 0.222 µM (active) | 0.281 µM (active) | – | – | 0.137 µM (active) | 0.615 µM (active) | – | 0.74 µM (active) | 0.0843 µM (active) | – | 0.871 µM (active)
O=[N+]([O-])c1cccc(-c2nc(-c3ccccc3)c(-c3ccccc3)[nH]2)c1 | > 100 µM (inactive) | > 100 µM (inactive) | > 100 µM (inactive) | – | > 100 µM (inactive) | > 100 µM (inactive) | > 100 µM (inactive) | > 100 µM (inactive) | > 100 µM (inactive) | > 100 µM (inactive) | – | > 100 µM (inactive) | > 100 µM (inactive) | – | > 100 µM (inactive) | > 100 µM (inactive) | > 100 µM (inactive) | > 100 µM (inactive) | > 100 µM (inactive) | > 100 µM (inactive)
C[NH+]1[C@@H](Cc2ccccc2)C(=O)O[B-]1(F)c1ccccc1 (some centres not stated) | > 100 µM (inactive) | > 100 µM (inactive) | > 100 µM (inactive) | > 100 µM (inactive) | > 100 µM (inactive) | > 100 µM (inactive) | > 100 µM (inactive) | > 100 µM (inactive) | > 100 µM (inactive) | > 100 µM (inactive) | > 100 µM (inactive) | > 100 µM (inactive) | > 100 µM (inactive) | – | > 100 µM (inactive) | > 100 µM (inactive) | > 100 µM (inactive) | > 100 µM (inactive) | – | > 100 µM (inactive)
NC(=O)c1csc(C2OC(CO)C(O)C2O)n1 (configuration not stated) | 42.6 µM (inactive) | 543 µM (inactive) | 21.8 µM (inactive) | 13.7 µM (inactive) | – | 436 µM (inactive) | 102 µM (inactive) | 35.1 µM (inactive) | 4400 µM (inactive) | 7.45 µM (inactive) | 115 µM (inactive) | 7.8 µM (inactive) | 57.5 µM (inactive) | 48.4 µM (inactive) | 467 µM (inactive) | – | 61.8 µM (inactive) | 5.56 µM (inactive) | – | 785 µM (inactive)
